According to paper PMC7415810, “A novel nucleolin-binding peptide for Cancer Theranostics” (Theranostics, 2020):

Assays:
[1] = test system: PI3K/Akt phosphorylation in MDA-MB-231 cells; assay: Immunoblot analysis of PI3K/Akt signaling; format: cell-based, human; settings: AGM-330 10, 50, 100 μM, anti-NCL antibody 20, 50 μg/mL
Protocol: Cells were washed with PBS and lysed on ice for 30 min. Protein extracts were mixed with loading buffer, and boiled at 100 °C for 5 min. A total volume of 50 µl of the denatured protein samples were loaded on 10% gels. A voltage of 80 V was applied to samples and then adjusted to 120 V when protein reached the separation gel. Next, protein was transferred to PVDF membranes for 2 h at 4 °C. PVDF membranes were washed with TBS-T 3 times, and blocked with skim milk for 1 h at room temperature. Primary antibodies were used to detect AKT (1:1000; Abcam), p-AKT (1:1000; Abcam), PI3K (1:1000; Abcam), p-PI3K (1:1000; Abcam). Membranes were treated with primary antibody overnight at 4 °C, washed with TBS-T, and incubated with secondary antibody for 1 h at room temperature. Membranes were washed and developed.
Figure S8. A-D, Western blot analysis of PI3K/Akt signaling in MDA-MB-231 cells stimulated by increasing
concentrations of an anti-NCL antibody and AGM-330. After treatment with the anti-NCL antibody (A,B) or
AGM-330 (C,D), the protein levels of p-PI3K, PI3K, p-Akt and Akt were assessed by immunoblot analysis. The

MCF-10A = assay: Whole-cell binding assay on OBOC peptide beads; format: cell-based, human; design: key: ++++: very strong binding (>40 cells per bead); +++: strong binding (30 -20 cells per bead); ++: moderate binding (20 - 10 cells per bead); +: weak binding (5-10 cells per bead); -: no binding; settings: peptide on TentaGel beads incubated with cells at 10^6 cells/ml; repeated 3 times
Protocol: The beads were washed extensively with double-distilled water and phosphate-buffered saline (PBS; Welgene Inc., Korea) before screening. Cancer and normal cells were detached from culture dishes with trypsin/EDTA (Gibco), washed with their corresponding culture medium, resuspended at 10^6 cells/ml, and incubated with OBOC beads in Petri dishes in a humidified CO2 incubator at 37 °C with shaking (60 rpm). Beads bound by cells appeared under a microscope as rosettes in which a central bead was covered by one or more layers of cells. The positive beads were picked with a pipette under an inverted microscope, treated with guanidine-HCL (8 M, 20 min) to remove cells and proteins on the bead surface, and subjected to a second round of screening with normal breast epithelial cells to eliminate false positive binding.
Note : Semiquantitative relative binding activity: “++++” very strong binding (>40 cells per bead), “+++” strong binding (30
-20 cells per bead), “+ +” moderate binding (20 - 10 cells per bead), “+” weak binding (5-10 cells per bead), “-” no binding. […]
Figure S1. A, Steps performed in peptide library synthesis and screening. 1, The split-mix synthesis method was performed to construct the combinatorial OBOC libraries. […]
sized. 3, OBOC libraries were incubated with cancer cells in a CO2 incubator. 4, Beads carrying ligands with an affinity for cell surface molecules became covered with cells. 5, The positive beads were picked with a pipette under an inverted microscope. 6, The peptide sequences for positive beads were determined by Edman microse - […]
peptide libraries. B, The binding specificities of the peptides against cancer cell and normal cells were deter- […]
breast and colorectal cancer cells and normal breast and colorectal cells were re-suspended at 10^6 cells/ml and incubated with beads. All experiments were repeated 3 times. Scale bar, 200 μm.

in vivo = settings: mouse, iv
Protocol: After 15 min of centrifugation at 5,000 rpm and 4 °C, the plasma was obtained and stored at -80 °C. Plasma peptide concentrations were quantified by ELISA, and pharmacokinetic profiles were analyzed using Phoenix WinNonlin 8.1 (Pharsight Corporation, Mountain View, CA, USA). The area under the plasma concentration-time curve (AUC), distribution half-time (T1/2), maximum plasma concentration (Cmax) and time required to reach maximum plasma concentration (Tmax) values were directly determined from the experimental data. […]
bated at 37 °C for 0, 3, 6, 9, and 24 h. The portion of serum-treated peptide remaining was determined by calcu-lating the height of the respective elution peak in analytical-HPLC and comparing it with control without incuba- […]
Plasma peptide concentrations were quantified by ELISA, and pharmacokinetic profiles were analyzed using Phoenix WinNonlin 8.1 (Pharsight Corporation, Mountain View, CA, USA). The data are presented as the means ± standard deviation.

SMILES: CSCC[C@H](NC(=O)[C@H](C)NC(=O)CNC(=O)[C@H](Cc1c[nH]cn1)NC(=O)[C@@H](N)CCCNC(=N)N)C(=O)N[C@H](C(=O)N[C@@H](Cc1ccc(O)cc1)C(=O)N[C@@H](CC(C)C)C(=O)N[C@@H](CCCCN)C(=O)NCCOCCOCCOCCOCCOCCOCCOCCOCCOCCOCCOCCOCCC(=O)NCCCC[C@H](NC(=O)CCOCCOCCOCCOCCOCCOCCOCCOCCOCCOCCOCCOCCNC(=O)[C@H](CCCCN)NC(=O)[C@H](CC(C)C)NC(=O)[C@H](Cc1ccc(O)cc1)NC(=O)[C@@H](NC(=O)[C@H](CCSC)NC(=O)[C@H](C)NC(=O)CNC(=O)[C@H](Cc1c[nH]cn1)NC(=O)[C@@H](N)CCCNC(=N)N)C(C)C)C(=O)NCCCC[C@H](NC(=O)[C@H](CCCCNC(=O)CCOCCOCCOCCOCCOCCOCCOCCOCCOCCOCCOCCOCCNC(=O)[C@H](CCCCN)NC(=O)[C@H](CC(C)C)NC(=O)[C@H](Cc1ccc(O)cc1)NC(=O)[C@@H](NC(=O)[C@H](CCSC)NC(=O)[C@H](C)NC(=O)CNC(=O)[C@H](Cc1c[nH]cn1)NC(=O)[C@@H](N)CCCNC(=N)N)C(C)C)NC(=O)CCOCCOCCOCCOCCOCCOCCOCCOCCOCCOCCOCCOCCNC(=O)[C@H](CCCCN)NC(=O)[C@H](CC(C)C)NC(=O)[C@H](Cc1ccc(O)cc1)NC(=O)[C@@H](NC(=O)[C@H](CCSC)NC(=O)[C@H](C)NC(=O)CNC(=O)[C@H](Cc1c[nH]cn1)NC(=O)[C@@H](N)CCCNC(=N)N)C(C)C)C(=O)N[C@@H](CS)C(=O)O)C(C)C [AGM-330]
- effect on PI3K/Akt phosphorylation [1]: did not suppress
- Semiquantitative relative binding activity, MCF-10A (MCF-10A): -
- Cmax (in vivo): 1880 ± 670 ng/mL
- T1/2 (in vivo): 566 ± 72.6 min
- Tmax (in vivo): 10 min
- peptide remaining after 24 h in vivo (in vivo): more than 25%
